Assay results published in US6323199A, “Nonsteroidal anti-inflammatory agents” (Schering Aktiengesellschaft, priority 1998, dated 2001).
Like-named read-outs stand apart in the source and are kept apart here.

Biological target: T1, glucocorticoid receptor (GR) (Rattus norvegicus, UniProt P06536)
T1 construct: cytosol preparations that consist of the thymus homogenates of rats; from tissue; host or cells: rat thymus homogenate, cytosol
T1 sequence (P06536 1-795): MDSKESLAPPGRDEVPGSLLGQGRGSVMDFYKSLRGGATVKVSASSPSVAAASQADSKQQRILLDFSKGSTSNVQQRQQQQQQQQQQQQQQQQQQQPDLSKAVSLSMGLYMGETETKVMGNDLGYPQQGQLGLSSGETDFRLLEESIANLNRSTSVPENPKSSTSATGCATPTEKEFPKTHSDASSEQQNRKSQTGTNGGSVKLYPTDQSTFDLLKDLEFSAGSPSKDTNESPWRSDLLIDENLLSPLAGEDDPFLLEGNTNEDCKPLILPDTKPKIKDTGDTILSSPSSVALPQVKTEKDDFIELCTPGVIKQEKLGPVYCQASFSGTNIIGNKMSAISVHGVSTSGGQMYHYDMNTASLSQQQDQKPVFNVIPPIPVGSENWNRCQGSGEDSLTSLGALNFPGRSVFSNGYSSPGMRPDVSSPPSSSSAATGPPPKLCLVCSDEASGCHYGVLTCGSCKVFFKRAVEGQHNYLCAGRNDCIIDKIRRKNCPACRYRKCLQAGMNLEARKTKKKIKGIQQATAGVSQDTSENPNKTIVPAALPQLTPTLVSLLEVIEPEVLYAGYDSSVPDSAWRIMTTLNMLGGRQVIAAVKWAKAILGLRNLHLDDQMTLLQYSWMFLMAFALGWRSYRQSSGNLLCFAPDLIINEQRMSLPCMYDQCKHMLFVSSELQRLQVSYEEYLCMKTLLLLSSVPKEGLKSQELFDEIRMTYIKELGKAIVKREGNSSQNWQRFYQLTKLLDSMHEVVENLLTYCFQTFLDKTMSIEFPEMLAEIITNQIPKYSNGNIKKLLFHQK
Assay: glucocorticoid receptor (GR)-binding test, cytosol of rat thymus homogenates, [3H]-dexamethasone

[1] = 10 nM [3H]-dexamethasone, rat thymus cytosol, read-out: IC50 (GR-binding test)

CC(C)(CC(O)(C(=O)Nc1ccc2c(c1)COC2=O)C(F)(F)F)c1cc(F)ccc1O (centres unmarked) [i, 5-[4-(5-Fluoro-2-hydroxyphenyl)-2-hydroxy-4-methyl-2-trifluoromethyl-valeroylamino]-phthalide]
IC50: 2.8 nM

CC(C)(CC(O)(CNc1ccc2c(c1)COC2=O)C(F)(F)F)c1cc(F)ccc1O (centres unmarked) [ii, 5-[4-(5-fluoro-2-hydroxyphenyl)-2-hydroxy-4-methyl-2-trifluoromethyl-pentylamino]-phthalide]
IC50 [1]: 2.3 nM

COc1ccc(F)cc1C(C)(C)CC(O)(C(=O)Nc1ccc2c(=O)onc(C)c2c1)C(F)(F)F (centres unmarked) [iii, 6-[4-(5-fluoro-2-methoxyphenyl)-2-hydroxy-4-methyl-2-trifluoromethyl-valeroylamino]-4-methyl-2,3-benzoxazin-1-one]
IC50 [1]: 4.6 nM

COc1cc(Br)ccc1C(C)(C)CC(O)(C(=O)Nc1ccc2c(=O)onc(C)c2c1)C(F)(F)F (centres unmarked) [iv, 6-[4-(4-bromo-2-methoxyphenyl)-2-hydroxy-4-methyl-2-trifluoromethyl-valeroylamino]-4-methyl-2,3-benzoxazin-1-one]
IC50 [1]: 4.9 nM

Cc1noc(=O)c2ccc(NC(=O)C(O)(CC(C)(C)c3cc(F)ccc3O)C(F)(F)F)cc12 (centres unmarked) [v, 6-[4-(5-fluoro-2-hydroxyphenyl)-2-hydroxy-4-methyl-2-trifluoromethyl-valeroylamino]-4-methyl-2,3-benzoxazin-1-one]
IC50: 2.6 nM
